Experimental data reported in patent US6743790B2, “Factor VIIa inhibitory (thio)urea derivatives, their preparation and their use” (Aventis Pharma Deutschland GmbH, priority 2000, dated 2004).

Molecular target: T1, factor VIIa/tissue factor (Homo sapiens, UniProt P08709)
T1 construct: human factor VIIa and TF (5 nM and 10 nM, respective final concentration)
Assay: Factor VIIa (FVIIa) chromogenic assay
Format: biochemical
Details: human factor VIIa 5 nM and TF 10 nM, substrate S-2288 500 μM, 25° C., 15 minute preincubation
Experimental: The ability of the compounds of the formula I to inhibit factor VIIa or other enzymes like factor Xa, thrombin, plasmin, or trypsin is assessed by determining the concentration of the compound of the formula I that inhibits enzyme activity by 50%, i.e. the IC50 value, which is related to the inhibition constant Ki. Purified enzymes are used in chromogenic assays. The concentration of inhibitor that causes a 50% decrease in the rate of substrate hydrolysis is determined by linear regression after plotting the relative rates of hydrolysis (compared to the uninhibited control) versus the log of the concentration of the compound of formula I. For calculating the inhibition constant Ki, the IC50 value is corrected for competition with substrate using the formula Ki=IC50/{1+(substrate concentration/Km)},
wherein Km is the Michaelis-Menten constant (Chen and Prusoff, Biochem. Pharmacol. 22 (1973), 3099-3108; I. H. Segal, Enzyme Kinetics, 1975, John Wiley & Sons, New York, 100-125; which are incorporated herein by reference).
The inhibitory activity (expressed as inhibition constant Ki(FVIIa)) of the compounds of formula I towards factor VIIa/tissue factor activity was determined using a chromogenic assay essentially as described previously (J. A. Ostrem et al., Biochemistry 37 (1998) 1053-1059 which is incorporated herein by reference). Kinetic assays were conducted at 25° C. in half-area microtiter plates (Costar Corp., Cambridge, Mass.) using a kinetic plate reader (Molecular Devices Spectramax 250). A typical assay consisted of 25 μl human factor VIIa and TF (5 nM and 10 nM, respective final concentration) combined with 40 μl of inhibitor dilutions in 10% DMSO/TBS-PEG buffer (50 mM Tris, 15 mM NaCl, 5 mM CaCl2, 0.05% PEG 8000, pH 8.15). Following a 15 minute preincubation period, the assay was initiated by the addition of 35 μl of the chromogenic substrate S-2288 (D-Ile-Pro-Arg-p-nitroanilide, Pharmacia Hepar Inc., 500 μM final concentration).

T1 sequence (P08709 213-466 limits assumed): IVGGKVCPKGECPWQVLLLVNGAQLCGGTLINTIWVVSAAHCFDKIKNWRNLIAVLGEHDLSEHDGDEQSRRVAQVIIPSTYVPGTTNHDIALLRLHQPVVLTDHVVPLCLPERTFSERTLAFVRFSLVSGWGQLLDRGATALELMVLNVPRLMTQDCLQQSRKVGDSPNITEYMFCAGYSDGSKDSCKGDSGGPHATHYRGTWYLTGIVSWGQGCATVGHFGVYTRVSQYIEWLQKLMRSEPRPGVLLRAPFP
T1 sequence (P08709 61-212 limits assumed): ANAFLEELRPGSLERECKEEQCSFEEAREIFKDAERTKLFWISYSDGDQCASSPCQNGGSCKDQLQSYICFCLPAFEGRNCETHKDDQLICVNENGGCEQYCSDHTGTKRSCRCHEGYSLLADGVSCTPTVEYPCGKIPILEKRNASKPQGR
T1 sequence (P13726 33-295 partner): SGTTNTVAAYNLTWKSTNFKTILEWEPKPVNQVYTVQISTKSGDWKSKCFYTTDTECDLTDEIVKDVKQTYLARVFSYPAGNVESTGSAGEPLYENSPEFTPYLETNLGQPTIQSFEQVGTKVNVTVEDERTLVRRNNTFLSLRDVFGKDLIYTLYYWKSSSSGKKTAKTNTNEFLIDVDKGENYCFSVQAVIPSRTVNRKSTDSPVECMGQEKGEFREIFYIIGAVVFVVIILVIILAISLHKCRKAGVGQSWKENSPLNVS

Structure (SMILES)	Ki [nM]
C[C@H](NC(=O)Nc1ccc(C(=N)N)cc1)C(=O)NCc1ccc(C(=N)N)cc1 [Example 1, (S)-N-(4-Carbamimidoylbenzyl)-2-[3-(4-carbamimidoylphenyl)ureido]propionamide]	14900
CN(C)c1ccc(CNC(=O)C(Cc2ccccc2)NC(=O)Nc2ccc(C(=N)N)cc2)cc1 (centres unmarked) [Example 2, 2-[3-(4-Carbamimidoylphenyl)ureido]-N-(4-dimethylaminobenzyl)-3-phenylpropionamide]	20900
N=C(N)c1ccc(NC(=O)NCC(=O)NCc2ccc(Cl)c(Cl)c2)cc1 [Example 3, 2-[3-(4-Carbamimidoylphenyl)ureido]-N-(3,4-dichlorobenzyl)acetamide]	970
CN(C)c1ccc(CNC(=O)CNC(=O)Nc2ccc(C(=N)N)cc2)cc1 [Example 4, 2-[3-(4-Carbamimidoylphenyl)ureido]-N-(4-dimethylaminobenzyl)acetamide]	1940
N=C(N)c1ccc(NC(=O)NCC(=O)NC(c2ccccc2)c2ccccc2)cc1 [Example 5, N-Benzhydryl-2-[3-(4-carbamimidoylphenyl)ureido]acetamide]	730
N=C(N)c1ccc(NC(=O)NCC(=O)NCc2cccc(Cl)c2)cc1 [Example 6, 2-[3-(4-carbamimidoylphenyl)ureido]-N-(3-chlorobenzyl)acetamide]	2170
CC(NC(=O)CNC(=O)Nc1ccc(C(=N)N)cc1)c1ccc(Oc2ccc(Cl)cc2Cl)cc1 (centres unmarked) [Example 9]	480
N=C(N)c1ccc(NC(=O)NCC(=O)NC(Cc2ccccc2)c2ccccc2)cc1 (centres unmarked) [Example 15]	6300
C[C@H](NC(=O)CNC(=O)Nc1ccc(C(=N)N)cc1)c1ccccc1 [Example 18]	430
C[C@@H](NC(=O)CNC(=O)Nc1ccc(C(=N)N)cc1)c1ccccc1 [Example 19]	20200
Cc1ccc([C@H](C)NC(=O)CNC(=O)Nc2ccc(C(=N)N)cc2)cc1 [Example 21]	130
C[C@H](NC(=O)CNC(=O)Nc1ccc(C(=N)N)cc1)c1ccc2ccccc2c1 [Example 30]	26
COc1ccc(Oc2ccc(C(C)NC(=O)CNC(=O)Nc3ccc(C(=N)N)cc3)cc2)cc1 (centres unmarked) [Example 36]	83
CC(NC(=O)CNC(=O)Nc1ccc(C(=N)N)cc1)c1ccc(Oc2ccc([N+](=O)[O-])cc2)cc1 (centres unmarked) [Example 37]	86
N=C(N)c1ccc(NC(=O)NCC(=O)NCc2ccncc2)cc1 [Example 40]	7890
N=C(N)c1ccc(NC(=O)NCC(=O)NC(c2ccccc2)c2ccncc2)cc1 (centres unmarked) [Example 41]	840
CC(C)(NC(=O)CNC(=O)Nc1ccc(C(=N)N)cc1)c1ccccc1 [Example 42]	7620
N#CC(NC(=O)CNC(=O)Nc1ccc(C(=N)N)cc1)c1ccc(F)cc1 (centres unmarked) [Example 43]	8470
N=C(N)c1ccc(NC(=O)NCC(=O)N[C@H]2CCc3ccccc32)cc1 [Example 44]	1500

More lines, now with the values ahead:

Ki [nM]	Structure (SMILES)
1410	N=C(N)c1ccc(NC(=O)NCC(=O)N[C@H]2CCCc3ccccc32)cc1 [Example 45]
13	CC(NC(=O)CNC(=O)Nc1ccc(C(=N)N)cc1)c1ccc(NC(=O)C2CCNCC2)cc1 (centres unmarked) [Example 49, Piperidine-4-carboxylic acid 4-(1-{2-[3-(4-carbamimidoylphenyl)ureido]acetylamino}-ethyl)phenylamide]
50	CC(NC(=O)CNC(=O)Nc1ccc(C(=N)N)cc1)c1ccc(NC(=O)c2cccnc2)cc1 (centres unmarked) [Example 51]
12	CC(NC(=O)CNC(=O)Nc1ccc(C(=N)N)cc1)c1ccc(NC(=O)c2cccc(Oc3ccccc3)c2)cc1 (centres unmarked) [Example 52]
47	CC(NC(=O)CNC(=O)Nc1ccc(C(=N)N)cc1)c1ccc(NC(=O)CCCN)cc1 (centres unmarked) [Example 54]
27	CC(NC(=O)CNC(=O)Nc1ccc(C(=N)N)cc1)c1ccc(C(F)(F)F)cc1C(F)(F)F (centres unmarked) [Example 60]
23	CC(NC(=O)CNC(=O)Nc1ccc(C(=N)N)cc1)c1ccc2c(c1)NC(=O)CO2 (centres unmarked) [Example 61]
33	COC(=O)c1cc(C(C)NC(=O)CNC(=O)Nc2ccc(C(=N)N)cc2)ccc1OCc1ccccc1 (centres unmarked) [Example 64]
3940	CC(NC(=O)CNC(=O)Nc1ccc(C(=N)N)c(Cl)c1)c1ccc2c(c1)OCCO2 (centres unmarked) [Example 68, 2-[3-(4-Carbamimidoyl-3-chlorophenyl)ureido]-N-[1-(2,3-dihydrobenzo[1,4]dioxin-6-yl)ethyl]acetamide]
116	C[C@H](NC(=O)CNC(=O)Nc1ccc(C(=N)N)c(F)c1)c1cccc(Br)c1 [Example 69, N-[(S)-1-(3-Bromophenyl)ethyl]-2-[3-(4-carbamimidoyl-3-fluorophenyl)ureido]-acetamide]
539	C[C@H](NC(=O)[C@H](CCC(=O)O)NC(=O)Nc1ccc(C(=N)N)cc1)c1cccc(Br)c1 [Example 70, (S)-4-[((S)-1-(3-Bromophenyl)ethyl)carbamoyl]-4-[3-(4-carbamimidoylphenyl)ureido]-butyric Acid]

System: not given
Assay: not given
Details: not given

melting point [°C]	Structure (SMILES)
147	CN(C)c1ccc(CNC(=O)C(Cc2ccccc2)NC(=O)Nc2ccc(C(=N)N)cc2)cc1 (centres unmarked) [Example 2, 2-[3-(4-Carbamimidoylphenyl)ureido]-N-(4-dimethylaminobenzyl)-3-phenylpropionamide]
209 to 214	CN(C)c1ccc(CNC(=O)CNC(=O)Nc2ccc(C(=N)N)cc2)cc1 [Example 4, 2-[3-(4-Carbamimidoylphenyl)ureido]-N-(4-dimethylaminobenzyl)acetamide]
